Measured values as given in paper PMC8800111 (The Journal of Biological Chemistry, 2021).

Legend:
Assay type in all cases: cell-based
[1] = target: proteins of U3A human fibrosarcoma cells (4462 proteins detected) (Homo sapiens, UniProt O75170); conditions: protein PPP6R2; soluble abundance after heat, U3A cells
[2] = target: proteins of U3A human fibrosarcoma cells (4462 proteins detected) (Homo sapiens, UniProt O75351); conditions: protein VPS4B; soluble abundance after heat, U3A cells
[3] = target: proteins of U3A human fibrosarcoma cells (4462 proteins detected) (Homo sapiens, UniProt P25787); conditions: protein PSMA2, U3A cells
[4] = target: proteins of U3A human fibrosarcoma cells (4462 proteins detected) (Homo sapiens, UniProt P27824); conditions: protein CANX; soluble abundance after heat, U3A cells
[5] = target: proteins of U3A human fibrosarcoma cells (4462 proteins detected) (Homo sapiens, UniProt P35250); conditions: protein RFC2; U3A cells
[6] = target: proteins of U3A human fibrosarcoma cells (4462 proteins detected) (Homo sapiens, UniProt P40227); conditions: protein CCT6A; U3A cells
[7] = target: proteins of U3A human fibrosarcoma cells (4462 proteins detected) (Homo sapiens, UniProt P46087); conditions: protein NOP2; U3A cells
[8] = target: proteins of U3A human fibrosarcoma cells (4462 proteins detected) (Homo sapiens, UniProt P49441); conditions: protein INPP1, U3A cells
[9] = target: proteins of U3A human fibrosarcoma cells (4462 proteins detected) (Homo sapiens, UniProt P52294); conditions: protein KPNA1; U3A cells
[10] = target: proteins of U3A human fibrosarcoma cells (4462 proteins detected) (Homo sapiens, UniProt Q07020); conditions: protein RPL18; soluble abundance after heat, U3A cells
[11] = target: proteins of U3A human fibrosarcoma cells (4462 proteins detected) (Homo sapiens, UniProt Q6P1N0); conditions: protein CC2D1A; soluble abundance after heat, U3A cells
[12] = target: proteins of U3A human fibrosarcoma cells (4462 proteins detected) (Homo sapiens, UniProt Q86WQ0); conditions: protein NR2C2AP, U3A cells
[13] = target: proteins of U3A human fibrosarcoma cells (4462 proteins detected) (Homo sapiens, UniProt Q8IVL6); conditions: protein LEPREL2; soluble abundance after heat, U3A cells
[14] = target: proteins of U3A human fibrosarcoma cells (4462 proteins detected) (Homo sapiens, UniProt Q8N9T8); conditions: protein KRI1; soluble abundance after heat, U3A cells
[15] = target: proteins of U3A human fibrosarcoma cells (4462 proteins detected) (Homo sapiens, UniProt Q8NFF5); conditions: protein FLAD1; U3A cells
[16] = target: proteins of U3A human fibrosarcoma cells (4462 proteins detected) (Homo sapiens, UniProt Q8NFI3); conditions: protein ENGASE; soluble abundance after heat, U3A cells
[17] = target: proteins of U3A human fibrosarcoma cells (4462 proteins detected) (Homo sapiens, UniProt Q8TA86); conditions: protein RP9, U3A cells
[18] = target: proteins of U3A human fibrosarcoma cells (4462 proteins detected) (Homo sapiens, UniProt Q8WW01); conditions: protein TSEN15; U3A, 10 μM, 2 h
[19] = target: proteins of U3A human fibrosarcoma cells (4462 proteins detected) (Homo sapiens, UniProt Q96CB9); conditions: protein NSUN4; U3A cells
[20] = target: proteins of U3A human fibrosarcoma cells (4462 proteins detected) (Homo sapiens, UniProt Q9H1D9); conditions: protein POLR3F; U3A cells
[21] = target: proteins of U3A human fibrosarcoma cells (4462 proteins detected) (Homo sapiens, UniProt Q9H2U1); conditions: protein DHX36, U3A cells
[22] = target: proteins of U3A human fibrosarcoma cells (4462 proteins detected) (Homo sapiens, UniProt Q9HAU0); conditions: protein PLEKHA5, U3A cells
[23] = target: proteins of U3A human fibrosarcoma cells (4462 proteins detected) (Homo sapiens, UniProt Q9NRW3); conditions: protein APOBEC3C; U3A cells
[24] = target: proteins of U3A human fibrosarcoma cells (4462 proteins detected) (Homo sapiens, UniProt Q9NRZ9); conditions: protein HELLS; soluble abundance after heat, U3A cells
[25] = target: proteins of U3A human fibrosarcoma cells (4462 proteins detected) (Homo sapiens, UniProt Q9NS69); conditions: protein TOMM22; soluble abundance after heat, U3A cells
[26] = target: proteins of U3A human fibrosarcoma cells (4462 proteins detected) (Homo sapiens, UniProt Q9UHA3); conditions: protein RSL24D1; U3A cells
[27] = target: proteins of U3A human fibrosarcoma cells (4462 proteins detected) (Homo sapiens, UniProt Q9UJX6); conditions: protein ANAPC2; soluble abundance after heat, U3A cells
[28] = target: proteins of U3A human fibrosarcoma cells (4462 proteins detected) (Homo sapiens, UniProt Q9Y399); conditions: protein MRPS2; U3A, 10 μM, 2 h
[29] = target: proteins of U3A human fibrosarcoma cells (4462 proteins detected) (Homo sapiens, UniProt Q9Y5N6); conditions: protein ORC6; U3A cells

Sequence of proteins of U3A human fibrosarcoma cells (4462 proteins detected) (Homo sapiens, UniProt Q9H1D9) (Q9H1D9 whole entry): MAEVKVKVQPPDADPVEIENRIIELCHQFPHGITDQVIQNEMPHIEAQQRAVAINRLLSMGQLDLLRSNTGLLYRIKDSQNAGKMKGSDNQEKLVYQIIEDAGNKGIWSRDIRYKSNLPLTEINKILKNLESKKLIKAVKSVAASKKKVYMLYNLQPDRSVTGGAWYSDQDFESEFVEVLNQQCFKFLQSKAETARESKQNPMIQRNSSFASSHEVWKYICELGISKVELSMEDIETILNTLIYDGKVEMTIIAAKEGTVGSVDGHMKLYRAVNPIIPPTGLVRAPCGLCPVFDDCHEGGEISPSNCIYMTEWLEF
Sequence of proteins of U3A human fibrosarcoma cells (4462 proteins detected) (Homo sapiens, UniProt P27824) (P27824 21-592): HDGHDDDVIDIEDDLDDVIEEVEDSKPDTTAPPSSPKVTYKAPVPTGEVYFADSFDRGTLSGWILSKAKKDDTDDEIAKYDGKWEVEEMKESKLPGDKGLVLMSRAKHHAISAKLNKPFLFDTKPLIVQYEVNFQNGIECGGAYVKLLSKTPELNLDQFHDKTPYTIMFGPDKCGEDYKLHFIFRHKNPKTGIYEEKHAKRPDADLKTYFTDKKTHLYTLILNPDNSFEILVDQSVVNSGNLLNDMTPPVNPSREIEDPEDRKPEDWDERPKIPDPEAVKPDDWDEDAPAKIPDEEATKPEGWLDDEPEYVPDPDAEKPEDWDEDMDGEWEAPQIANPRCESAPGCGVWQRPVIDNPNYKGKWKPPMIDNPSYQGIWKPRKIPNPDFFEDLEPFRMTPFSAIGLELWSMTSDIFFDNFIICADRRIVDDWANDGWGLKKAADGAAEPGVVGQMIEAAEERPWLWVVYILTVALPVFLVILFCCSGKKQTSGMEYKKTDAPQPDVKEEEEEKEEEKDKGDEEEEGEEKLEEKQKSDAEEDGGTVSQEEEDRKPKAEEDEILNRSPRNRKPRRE
Sequence of proteins of U3A human fibrosarcoma cells (4462 proteins detected) (Homo sapiens, UniProt Q8NFI3) (Q8NFI3 whole entry): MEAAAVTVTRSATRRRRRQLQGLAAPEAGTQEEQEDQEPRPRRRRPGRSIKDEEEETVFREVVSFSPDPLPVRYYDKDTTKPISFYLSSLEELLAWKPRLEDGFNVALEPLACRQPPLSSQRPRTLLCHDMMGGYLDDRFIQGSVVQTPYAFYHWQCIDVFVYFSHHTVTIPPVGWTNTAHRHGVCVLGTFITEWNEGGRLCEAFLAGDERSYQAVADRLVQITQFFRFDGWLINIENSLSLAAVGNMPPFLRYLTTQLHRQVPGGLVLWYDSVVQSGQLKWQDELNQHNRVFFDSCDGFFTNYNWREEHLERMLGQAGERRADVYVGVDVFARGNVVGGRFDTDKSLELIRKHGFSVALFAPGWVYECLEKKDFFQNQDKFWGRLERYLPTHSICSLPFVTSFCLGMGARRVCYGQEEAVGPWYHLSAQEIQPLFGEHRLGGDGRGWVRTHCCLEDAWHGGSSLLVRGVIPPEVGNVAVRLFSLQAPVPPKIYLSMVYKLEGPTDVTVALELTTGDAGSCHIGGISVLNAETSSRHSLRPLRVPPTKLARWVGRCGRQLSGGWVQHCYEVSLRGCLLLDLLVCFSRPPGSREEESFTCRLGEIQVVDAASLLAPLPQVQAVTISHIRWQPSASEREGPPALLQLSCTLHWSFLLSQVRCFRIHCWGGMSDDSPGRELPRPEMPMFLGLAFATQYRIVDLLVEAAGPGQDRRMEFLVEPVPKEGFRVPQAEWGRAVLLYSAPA
Sequence of proteins of U3A human fibrosarcoma cells (4462 proteins detected) (Homo sapiens, UniProt Q6P1N0) (Q6P1N0 whole entry): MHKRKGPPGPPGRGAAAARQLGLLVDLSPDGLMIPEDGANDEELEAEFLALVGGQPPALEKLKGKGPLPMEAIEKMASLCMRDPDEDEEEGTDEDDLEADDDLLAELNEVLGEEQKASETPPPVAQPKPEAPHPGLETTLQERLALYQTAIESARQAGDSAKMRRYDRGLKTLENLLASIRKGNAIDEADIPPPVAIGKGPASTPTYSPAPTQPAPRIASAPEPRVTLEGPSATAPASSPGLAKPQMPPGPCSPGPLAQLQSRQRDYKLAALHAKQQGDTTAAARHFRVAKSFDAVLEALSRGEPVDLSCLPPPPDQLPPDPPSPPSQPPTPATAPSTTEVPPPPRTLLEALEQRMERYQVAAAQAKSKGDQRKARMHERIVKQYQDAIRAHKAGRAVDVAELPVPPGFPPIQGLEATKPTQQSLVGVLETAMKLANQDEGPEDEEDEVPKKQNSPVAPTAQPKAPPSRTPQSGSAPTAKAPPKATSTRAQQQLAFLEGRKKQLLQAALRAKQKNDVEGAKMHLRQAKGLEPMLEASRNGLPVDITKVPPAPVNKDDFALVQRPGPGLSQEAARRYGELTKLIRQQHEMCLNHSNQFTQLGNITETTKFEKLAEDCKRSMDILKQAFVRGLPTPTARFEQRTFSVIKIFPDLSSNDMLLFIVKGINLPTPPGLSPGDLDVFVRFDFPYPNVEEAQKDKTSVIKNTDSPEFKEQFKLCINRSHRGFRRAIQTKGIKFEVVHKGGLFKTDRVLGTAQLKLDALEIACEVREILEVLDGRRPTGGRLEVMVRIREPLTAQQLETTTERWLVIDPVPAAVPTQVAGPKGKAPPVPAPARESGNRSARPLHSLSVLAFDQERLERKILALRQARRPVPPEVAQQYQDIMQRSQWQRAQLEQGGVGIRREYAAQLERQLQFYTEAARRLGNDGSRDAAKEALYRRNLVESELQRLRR
Sequence of proteins of U3A human fibrosarcoma cells (4462 proteins detected) (Homo sapiens, UniProt Q86WQ0) (Q86WQ0 whole entry): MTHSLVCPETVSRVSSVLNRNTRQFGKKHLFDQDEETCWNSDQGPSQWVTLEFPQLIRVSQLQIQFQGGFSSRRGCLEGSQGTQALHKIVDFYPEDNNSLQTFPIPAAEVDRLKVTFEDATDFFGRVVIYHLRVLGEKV
Sequence of proteins of U3A human fibrosarcoma cells (4462 proteins detected) (Homo sapiens, UniProt O75170) (O75170 whole entry): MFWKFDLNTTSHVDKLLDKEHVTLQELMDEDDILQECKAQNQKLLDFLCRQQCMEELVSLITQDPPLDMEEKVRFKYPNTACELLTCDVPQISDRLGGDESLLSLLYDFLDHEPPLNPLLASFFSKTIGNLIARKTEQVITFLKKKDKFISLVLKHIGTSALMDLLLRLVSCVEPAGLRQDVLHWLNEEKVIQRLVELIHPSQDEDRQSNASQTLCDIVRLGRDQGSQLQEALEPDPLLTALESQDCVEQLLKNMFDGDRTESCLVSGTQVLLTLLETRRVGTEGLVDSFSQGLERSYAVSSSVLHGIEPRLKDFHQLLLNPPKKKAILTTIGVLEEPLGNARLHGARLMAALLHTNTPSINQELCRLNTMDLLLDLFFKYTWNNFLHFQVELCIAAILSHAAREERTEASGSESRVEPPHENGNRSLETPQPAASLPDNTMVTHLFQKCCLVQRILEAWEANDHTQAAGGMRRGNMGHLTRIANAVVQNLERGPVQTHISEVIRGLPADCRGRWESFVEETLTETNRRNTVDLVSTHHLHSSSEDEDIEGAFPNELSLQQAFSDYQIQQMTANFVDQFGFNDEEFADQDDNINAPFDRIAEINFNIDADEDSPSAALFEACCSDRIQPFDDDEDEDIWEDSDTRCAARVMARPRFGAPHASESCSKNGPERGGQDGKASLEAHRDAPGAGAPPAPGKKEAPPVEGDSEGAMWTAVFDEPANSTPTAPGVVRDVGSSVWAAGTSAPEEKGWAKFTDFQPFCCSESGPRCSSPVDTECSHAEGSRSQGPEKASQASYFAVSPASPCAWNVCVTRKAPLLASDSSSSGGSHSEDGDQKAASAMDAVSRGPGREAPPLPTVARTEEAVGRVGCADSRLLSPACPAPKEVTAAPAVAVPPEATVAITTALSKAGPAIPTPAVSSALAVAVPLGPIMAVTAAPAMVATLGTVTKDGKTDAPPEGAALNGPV
Sequence of proteins of U3A human fibrosarcoma cells (4462 proteins detected) (Homo sapiens, UniProt P49441) (P49441 whole entry): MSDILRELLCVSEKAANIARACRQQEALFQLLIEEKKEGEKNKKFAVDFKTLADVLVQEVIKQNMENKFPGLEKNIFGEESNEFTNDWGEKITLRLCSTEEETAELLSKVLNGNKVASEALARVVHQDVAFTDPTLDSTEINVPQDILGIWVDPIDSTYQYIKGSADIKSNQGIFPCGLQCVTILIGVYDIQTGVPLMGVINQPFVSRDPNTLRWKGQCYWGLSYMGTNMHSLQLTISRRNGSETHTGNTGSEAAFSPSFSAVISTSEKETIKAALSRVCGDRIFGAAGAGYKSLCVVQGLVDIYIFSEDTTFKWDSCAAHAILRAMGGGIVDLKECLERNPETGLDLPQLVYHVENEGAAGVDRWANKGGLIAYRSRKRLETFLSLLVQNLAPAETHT
Sequence of proteins of U3A human fibrosarcoma cells (4462 proteins detected) (Homo sapiens, UniProt P25787) (P25787 whole entry): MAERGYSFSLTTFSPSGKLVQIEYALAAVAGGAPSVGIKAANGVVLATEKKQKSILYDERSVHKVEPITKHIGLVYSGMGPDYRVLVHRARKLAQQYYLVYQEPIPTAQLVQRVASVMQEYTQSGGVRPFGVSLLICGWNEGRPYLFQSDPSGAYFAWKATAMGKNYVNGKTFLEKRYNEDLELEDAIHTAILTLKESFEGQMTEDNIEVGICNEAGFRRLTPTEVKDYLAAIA
Sequence of proteins of U3A human fibrosarcoma cells (4462 proteins detected) (Homo sapiens, UniProt O75351) (O75351 whole entry): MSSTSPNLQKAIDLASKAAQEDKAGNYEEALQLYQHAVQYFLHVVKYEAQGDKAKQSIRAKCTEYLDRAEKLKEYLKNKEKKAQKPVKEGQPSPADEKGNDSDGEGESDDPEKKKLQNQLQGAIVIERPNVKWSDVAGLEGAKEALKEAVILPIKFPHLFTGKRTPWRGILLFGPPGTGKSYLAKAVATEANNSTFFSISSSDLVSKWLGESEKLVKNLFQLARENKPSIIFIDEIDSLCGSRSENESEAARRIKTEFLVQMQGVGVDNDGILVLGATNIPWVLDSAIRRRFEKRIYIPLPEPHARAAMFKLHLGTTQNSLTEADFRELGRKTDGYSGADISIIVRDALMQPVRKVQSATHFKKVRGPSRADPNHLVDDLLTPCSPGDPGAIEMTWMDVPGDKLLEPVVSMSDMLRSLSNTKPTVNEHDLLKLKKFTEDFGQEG
Sequence of proteins of U3A human fibrosarcoma cells (4462 proteins detected) (Homo sapiens, UniProt Q9NRW3) (Q9NRW3 whole entry): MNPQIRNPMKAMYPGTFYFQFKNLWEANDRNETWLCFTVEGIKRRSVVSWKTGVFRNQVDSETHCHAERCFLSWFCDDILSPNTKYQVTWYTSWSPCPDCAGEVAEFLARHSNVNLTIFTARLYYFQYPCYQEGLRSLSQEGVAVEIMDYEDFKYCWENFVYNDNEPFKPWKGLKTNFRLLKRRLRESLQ

Structure (SMILES): CCc1nc(N)nc(N)c1-c1ccc(Cl)cc1 [pyrimethamine]
- Log2 (PYR/DMSO) [1]: 0.13
- Log2 (PYR/DMSO) [2]: 0.14
- Log2 (PYR/DMSO) [3]: -0.03
- Log2 (PYR/DMSO) [4]: 0.14
- Log2 (PYR/DMSO) [5]: 0.17
- Log2 (PYR/DMSO) [6]: 0.20
- Log2 (PYR/DMSO) [7]: 0.16
- Log2 (PYR/DMSO) [8]: -0.04
- Log2 (PYR/DMSO) [9]: 0.17
- Log2 (PYR/DMSO) [10]: 0.15
- Log2 (PYR/DMSO) [11]: 0.15
- Log2 (PYR/DMSO) [12]: -0.03
- Log2 (PYR/DMSO) [13]: 0.14
- Log2 (PYR/DMSO) [14]: 0.14
- Log2 (PYR/DMSO) [15]: 0.16
- Log2 (PYR/DMSO) [16]: 0.15
- Log2 (PYR/DMSO) [17]: -0.05
- Log2 (PYR/DMSO), TSEN15 [18]: -0.15
- Log2 (PYR/DMSO) [19]: 0.16
- Log2 (PYR/DMSO) [20]: 0.17
- Log2 (PYR/DMSO) [21]: -0.03
- Log2 (PYR/DMSO) [22]: -0.05
- Log2 (PYR/DMSO) [23]: 0.22
- Log2 (PYR/DMSO) [24]: 0.14
- Log2 (PYR/DMSO) [25]: 0.14
- Log2 (PYR/DMSO) [26]: 0.17
- Log2 (PYR/DMSO) [27]: 0.14
- Log2 (PYR/DMSO), MRPS2 [28]: 0.25
- Log2 (PYR/DMSO) [29]: 0.18
